According to patent US5834257A, “α-agarase and production process of oligosaccharides and monosaccharides” (Japan Tobacco Inc., priority 1995, dated 1998):

Tested on: α-NAOS hydrolase (α-agarase) derived from Vibrio sp. JT0107-L4, N-terminal sequence SEQ ID NO:2
Experiment: Michaelis constant and maximum velocity by Lineweaver-Burk plot, neoagarobiose degradation measured by HPLC
Type: biochemical
Conditions: substrate neoagarobiose, 20 mM potassium phosphate buffer pH 7.8, 30° C.
Protocol: The activity determination of purified or partially purified products of this enzyme is conducted as follows. After an enzyme reaction with neoagarobiose as the substrate, the amount of degraded neoagarobiose is calculated from the amount of intact neoagarobiose which is determined by HPLC. Details are as follows. A 0.1% solution of neoagarobiose dissolved in 20 mM potassium phosphate buffer (pH 7.8) is prepared. This solution, as the substrate, in a volume of 90 μl was mixed with 10 μl of the enzyme solution. The mixed solution is incubated at 30° C. for 5 to 30 minutes, preferably for 10 minutes; the reaction is stopped by heating in boiling water for 1 minute. This reaction solution in a volume of 10 μl is applied to a column, Capcell pak C-18 (manufactured by Shiseido) which is of 4.5 mm in internal diameter and 250 mm in length, and eluted at a flow rate of 1 ml/min using water as the eluent; the amount of neoagarobiose not degraded by the enzyme reaction, which has a retention time of about 4.5 minutes, is quantified. The amount of degraded neoagarobiose is calculated inversely from the value in this measurement, assuming that the amount of enzyme degrading 1 μmol neoagarobiose per minute is 1 U. Neoagarobiose consisting of 3,6-anhydro-L-galactose and D-galactose through α-1,3 bond was used as the substrate. Various substrate solutions of different concentration were prepared. […]

- Km: 4.28 ± 5 mM
- maximum velocity (1 U = 1 μmol neoagarobiose degraded per minute): 87 U/mg-protein
SMILES: OC[C@H]1OC(O)[C@H](O)[C@@H](O[C@@H]2O[C@H]3CO[C@@H]([C@@H]2O)[C@@H]3O)[C@H]1O (some centres unmarked) [Neoagarobiose]
